The source of these data is US5470859A (priority 1989, dated 1995).

SMILES strings stand for the structures. Counter-ions that a name gives are not always drawn. Like-named read-outs stand apart in the source and are kept apart here.

The target in test [1] is muscarinic receptors. The format is binding, Hooded Lister rats. The following applies: 0.27 nM 3H-QNB, rat cerebral cortex membranes, 37° C., 30 min.
Test [2] deals with muscarinic receptors. Description: Radio ligand binding: displacement of the muscarinic agonist 3H-Oxotremorine-M (3H-OXO-M), rat cerebral cortex. On the set-up: species or system Hooded Lister rats. Particulars: 2 nM 3H-OXO-M, rat cerebral cortex membranes, 2 mM magnesium chloride, 37° C., 30 min.

The IC50 is the concentration that gives 50% inhibition. In the case of `C(=C1/CN2CCC1C2)/c1nccs1` (racemic) [Example E10, (±) Z 3-([1,3-Thiazol-2-yl]methin)-1-azabicyclo[2.2.1]heptane oxalate salt], the IC50 against muscarinic receptors [1] is 2500 nM; at muscarinic receptors [2], 165 nM.
`C(=C1/CN2CCC1C2)/c1ncco1` (racemic) [Example E5, (±) Z 3-([1,3-Oxazol-2-yl]methin)-1-azabicyclo[2.2.1]heptane]: the IC50 at muscarinic receptors [1] was 1800 nM; at muscarinic receptors [2], 8.6 nM.
The like results for `C(=C1CN2CCC1C2)c1cnco1` (racemic) [Example E4, (±)E/Z 3-([1,3-Oxazol-5-yl]methin)-1-azabicyclo[2.2.1]heptane oxalate salt] were, in that order, 27900 nM and 294 nM.
The like results for `Cc1noc(/C=C2\CN3CCC2C3)n1` (racemic) [Example E2, (±) Z 3-([3-Methyl-1,2,4-oxadiazol-5-yl]methin)-1-azabicyclo[2.2.1]heptane oxalate salt] were, in that order, 1900 nM and 30 nM.
For `Nc1noc(C=C2CC3CCN(C2)C3)n1` (racemic) [Example E6, (±)E/Z 3-([3-Amino-1,2,4-oxadiazol-5-yl]methin)-1-azabicyclo[3.2.1]octane] the same measures were 5700 nM and 520 nM.
Consider `Nc1noc(/C=C2\CN3CCC2C3)n1` (racemic) [Example E1, (±) Z 3-([3-Amino-1,2,4-oxadiazol-5-yl]methin)-1-azabicyclo[2.2.1]heptane], for which the results for the IC50 at muscarinic receptors [1] and on muscarinic receptors [2] were 3200 nM and 11.8 nM, respectively.
